Assay results: patent US20080200492A1, “METHODS FOR THE TREATMENT OF ALCOHOL ABUSE, ADDICTION AND DEPENDENCY” (priority 2006, published 2008)

Key:
alcohol preferring rats [1] = test: Alcohol Preferring Rats In Vivo Model, acute oral dosing, two-bottle choice; parameters: species or system rat; conditions: for Alcohol Intake / Alcohol Preference: mean ± S.E.M., N = 14
Description: Adult male selectively-bred alcohol preferring rats (N=14) were used. This particular strain of alcohol drinking rat has been characterized and have been widely used to study the effects of different compounds on voluntary alcohol intake (Farren et al., 2000; Rezvani et al, 1990, 1991, 1992a, 1992b, 1999, 2000, 2003; Murphy et al, 1988; Overstreet et al., 2003, 1999; Li and McBride, 1990). Rats were housed individually in approved cages under a constant room temperature of 22+1° C. and 12:12 light-dark cycle (8:00-20:00, dark). Animal were fed Agway Prolab Rat/Mouse/Hamster 3000 formula and water ad libitum.
Alcohol intake was determined using the standard two-bottle choice method utilized in our and other laboratories for many years (Murphy et al. 1988; Rezvani et al. 1990, 1991, 1993, 1995, 1997, Rezvani and Grady, 1994, Rezvani et al., 1993). Animals were first given free access to water in a graduated Richter tube for 2 days. Next, they were given access to only a solution of 10% (v/v) ethanol for 3 consecutive days. During this period animals became accustomed to drinking from Richter tubes and to the taste and pharmacological effects of alcohol. Thereafter, they were given free access to both water and a solution of 10% alcohol for at least 4 consecutive weeks and throughout of the period of study. Rats had free access to food. Water and alcohol intake were recorded at 6 and 24 hour after the treatment, whereas food intake was measured at 24 hour. Animals' body weights were measured the day of the treatment and the day after.
After establishment of stable baseline for alcohol, food, and water intake, rats were administered (gavage) at 9:30 a.m. either with the vehicle or the compound of formula (I) at one of four doses (1,3,10 and 30 mg/kg) using a cross-over design with random assignment. To be able to compare the efficacy of the compound of formula (I) on alcohol intake naltrexone was included as a positive control. The same rats were given an oral dose of 20 mg/kg naltrexone. All animals will receive all treatments in a random order. The interval between treatments was at least 1 week. Alcohol and water intake were recorded 6 and 24 h after the drug administration and food intake was recorded at 24 hr. The volume of the drug administration was 6 ml/kg.
The results at 6 and 24 hours post-dosing are presented in Tables 3 and 4 below, as means ±SEM. Alcohol intake (g/kg) was calculated by multiplying the volume of alcohol consumed in ml by 10% and 0.7893 (ethanol density)/body weight in kg. Alcohol preference, expressed as a percentage, was calculated as follows (volume of alcohol consumed in ml/total fluid intake in ml)×100 (Rezvani and Grady, 1994; Rezvani et al., 1997). Statistical differences between drug-treated and control groups were determined by using ANOVA with repeated measures. Each treatment was compared with the corresponding vehicle value.

alcohol preferring rats [2] = test: Alcohol Preferring Rats, Study B: Post-Deprivation Effect; type: in vivo, rat; conditions: for % EtOH / Alcohol: 45 min before re-exposure to alcohol after 72 hours deprivation
Description: Adult male selectively-bred alcohol preferring rats were used in this study. The selectively bred alcohol preferring rats are widely used to study the suppressant effects of compounds on voluntary alcohol intake (Faren et al. 2000; Rezvani et al, 1990, 1991, 1992a, 1992b, 1999, 2000, 2002; 2003; Murphy et al, 1988; Overstreet et al., 1992, 1999; Li and McBride, 1995).
The rats were housed individually under a constant room temperature of 22±1° C. and 12:12 light-dark cycle (7:00-19:00, dark). Animals were fed Agway Prolab Rat/Mouse/Hamster 3000 formula and water ad libitum.
Alcohol intake was determined using a standard two-bottle choice method (Murphy et al. 1988; McBride et al. 1990; Rezvani et al. 1990, 1991, 1993, 1995, 1997, Rezvani et al., 2007a,b; Rezvani and Grady, 1994). Animals were first given free access to water in a graduated Richter tube for 1 day. Next, they were given access to only a solution of 10% (v/v) ethanol for 3 consecutive days. During this period the animals became accustomed to drinking from Richter tubes and to the taste and pharmacological effects of alcohol. Thereafter, the animals were given free access to both water and a solution of 10% alcohol for 4 consecutive weeks and throughout of the study. The animals continued to have free access to food. Water and alcohol intake were recorded at 6 and 24 hour.
Following Study A, the rats were maintained on alcohol for 15 days without drug. On day 16 post-gavage, rats were put on food and water only for 72 hours. On the next day, 45 min before re-exposure to alcohol, the rats were treated with vehicle (0.5% methylcellulose), naltrexone (at 20 mg/kg) or compound of formula (I-A) (at 30-mg/kg). Alcohol intake was then measured at 1, 3, 6 and 24 hr after exposure.
The results are presented as a means. Alcohol intake (g/kg) was calculated by multiplying the volume of alcohol consumed in ml by 10% and 0.7893 (ethanol density)/body weight in kg. Alcohol preference, expressed as percentage was calculated as (volume of alcohol consumed in ml/total fluid intake in ml)×100 (Rezvani and Grady, 1994; Rezvani et al., 2007a). Statistical differences between drug-treated and control groups was determined by using ANOVA and Tukey Student's t test for multiple comparison.
The results from Study B provide a measure of the effectiveness of the test compound to suppress post-deprivation-induced craving for alcohol.

[3] = 20 mg/kg p.o., 6 hrs post-dosing
[4] = 20 mg/kg p.o., 24 hrs post-dosing
[5] = 1 mg/kg p.o., 6 hrs post-dosing
[6] = 1 mg/kg p.o., 24 hrs post-dosing
[7] = 3 mg/kg p.o., 6 hrs post-dosing
[8] = 3 mg/kg p.o., 24 hrs post-dosing
[9] = 10 mg/kg p.o., 6 hrs post-dosing
[10] = 10 mg/kg p.o., 24 hrs post-dosing
[11] = 30 mg/kg p.o, 6 hrs post-dosing
[12] = 30 mg/kg p.o, 24 hrs post-dosing

O=C1CC[C@@]2(O)[C@H]3Cc4ccc(O)c5c4[C@@]2(CCN3CC2CC2)[C@H]1O5 [Naltrexone, naltrexone, reference compound]
Alcohol Intake (alcohol preferring rats [1]; [3]): 1.19 ± 0.25 g/kg | Alcohol Preference (alcohol preferring rats [1]; [3]): 46.8 ± 7.91% | Alcohol Intake (alcohol preferring rats [1]; [4]): 3.64 ± 0.545 g/kg | Alcohol Preference (alcohol preferring rats [1]; [4]): 58.8 ± 6.77% | Alcohol intake compared with vehicle (alcohol preferring rats [1]; naltrexone 20 mg/kg oral, 24 hr post-dosing): remained statistically significantly (p<0.0028) in reducing alcohol intake | Alcohol preference compared with vehicle (alcohol preferring rats [1]; naltrexone 20 mg/kg oral, both 6 hours and 24 hours post-dosing): reduced alcohol preference | % EtOH (alcohol preferring rats [2]; 20 mg/kg, 1 Hour Post Dosing): 95% | Alcohol (alcohol preferring rats [2]; 20 mg/kg, 1 Hour Post Dosing): 0.48 g/kg | % EtOH (alcohol preferring rats [2]; 20 mg/kg, 3 Hours Post Dosing): 94% | Alcohol (alcohol preferring rats [2]; 20 mg/kg, 3 Hours Post Dosing): 1.15 g/kg | % EtOH (alcohol preferring rats [2]; 20 mg/kg, 6 Hours Post Dosing): 87% | Alcohol (alcohol preferring rats [2]; 20 mg/kg, 6 Hours Post Dosing): 2.35 g/kg | % EtOH (alcohol preferring rats [2]; 20 mg/kg, 24 Hours Post Dosing): 87% | Alcohol (alcohol preferring rats [2]; 20 mg/kg, 24 Hours Post Dosing): 6.47 g/kg

Cc1cccc2cccc(CN3CCC4(CC3)C(=O)N(C[C@H](O)CN)CN4c3ccc(F)cc3)c12 [Cmpd (I-A), 3-(3-amino-2-(R)-hydroxy-propyl)-1-(4-fluoro-phenyl)-8-(8-methyl-naphthalen-1-ylmethyl)-1,3,8-triazaspiro[4.5]decan-4-one]
Alcohol Intake (alcohol preferring rats [1]; [5]): 1.85 ± 0.234 g/kg | Alcohol Preference (alcohol preferring rats [1]; [5]): 75.1 ± 5.60% | Alcohol Intake (alcohol preferring rats [1]; [6]): 4.95 ± 0.389 g/kg | Alcohol Preference (alcohol preferring rats [1]; [6]): 80.4 ± 4.68% | Alcohol Intake (alcohol preferring rats [1]; [7]): 1.53 ± 0.184 g/kg | Alcohol Preference (alcohol preferring rats [1]; [7]): 61.6 ± 6.19% | Alcohol Intake (alcohol preferring rats [1]; [8]): 4.43 ± 0.339 g/kg | Alcohol Preference (alcohol preferring rats [1]; [8]): 68.9 ± 4.87% | Alcohol Intake (alcohol preferring rats [1]; [9]): 1.59 ± 0.238 g/kg | Alcohol Preference (alcohol preferring rats [1]; [9]): 62.4 ± 6.33% | Alcohol Intake (alcohol preferring rats [1]; [10]): 4.73 ± 0.351 g/kg | Alcohol Preference (alcohol preferring rats [1]; [10]): 71.7 ± 3.56% | Alcohol Intake (alcohol preferring rats [1]; [11]): 0.905 ± 0.198 g/kg | Alcohol Preference (alcohol preferring rats [1]; [11]): 46.7 ± 8.20% | Alcohol Intake (alcohol preferring rats [1]; [12]): 3.16 ± 0.582 g/kg | Alcohol Preference (alcohol preferring rats [1]; [12]): 50.1 ± 7.77% | Alcohol preference compared with vehicle (alcohol preferring rats [1]; 30 mg/kg, both 6 hours and 24 hours post-dosing): reduced alcohol preference | Alcohol intake compared with vehicle (alcohol preferring rats [1]; acute oral administration of 3, 10 and 30 mg/kg, at 6 hr): significantly reduced alcohol intake | Alcohol intake compared with vehicle (alcohol preferring rats [1]; at 24 hr, only "the mg/kg dose" (dose figure missing)): statistically significantly (p<0.0002) in reducing alcohol intake | Alcohol preference compared with vehicle (alcohol preferring rats [1]; other doses (1, 3, 10 mg/kg), 6 hours and 24 hours post-dosing): did not significantly affect alcohol preference | % EtOH (alcohol preferring rats [2]; 30 mg/kg, 1 Hour Post Dosing): 84% | Alcohol (alcohol preferring rats [2]; 30 mg/kg, 1 Hour Post Dosing): 0.39 g/kg | % EtOH (alcohol preferring rats [2]; 30 mg/kg, 3 Hours Post Dosing): 75% | Alcohol (alcohol preferring rats [2]; 30 mg/kg, 3 Hours Post Dosing): 0.72 g/kg | % EtOH (alcohol preferring rats [2]; 30 mg/kg, 6 Hours Post Dosing): 72% | Alcohol (alcohol preferring rats [2]; 30 mg/kg, 6 Hours Post Dosing): 1.48 g/kg | % EtOH (alcohol preferring rats [2]; 30 mg/kg, 24 Hours Post Dosing): 73% | Alcohol (alcohol preferring rats [2]; 30 mg/kg, 24 Hours Post Dosing): 3.72 g/kg | Alcohol intake and preference, post-deprivation (alcohol preferring rats [2]; 30 mg/kg, at 1, 3, 6 and 24 hours post dosing): showed a decrease in alcohol intake and preference
